In patent US20240226066A1, “CARDIOPROTECTION BY AUTOPHAGY INDUCTION AND METABOLIC REPROGRAMMING” (UNIVERSITE PARIS-SACLAY, priority 2021, published 2024):
Like-named read-outs stand apart in the source and are kept apart here.

Tests used:
RNVCs [1] = experiment: Mitochondrial network and cell volume by confocal microscopy (Mitotracker, calcein-AM, IMARIS); format: cell-based, rat; settings: 1 and 10 μM, 6 h
Experimental: FIG. 6. Effects on mitochondrial dynamics by fluorescence microscopy The RNVCs were treated with 1 μM hits (FIG. 6A) and 10 μM hits (FIG. 6B) for 6 h and the mitochondrial network was stained with 200 nM of Mitotracker. The mitochondrial network and individual mitochondria were then analyzed using a Leica confocal microscope and IMARIS software. Data are presented as mean±SEM with single-factor ANOVA, and multiple Sidak comparisons. *, p<0.05, **, p<0.01, ***, p<0.001 with respect to DMSO.
FIG. 11: following the treatment of the RNVCs with the compounds as indicated, the cell volume was stained with 4 μM of calcein-AM. The cell volume was then analyzed using the IMARIS software.
Confocal microscopy. On day 0, 4×10^5 neonatal cardiomyocytes were plated overnight on laminin-coated 35 mm culture dishes (10 μg/ml). On day 1, the cells were treated with various compounds at 1 or 10 μM for 6 hours. The cells were incubated with Mitotracker Red 580 at 200 nM for 20 minutes at 37° C., then 4 μM of calcein (Calcein AM, Life Technologies, St Aubin, France) for 10 minutes at 37° C. The images were acquired with a Leica confocal microscope (SP5) (Mannheim, Germany). The mitochondrial network and the 3D model of cell volume were reconstructed using the IMARIS software (Bitplane Company, Zurich, Switzerland); therefore the cell volume, mitochondrial number and volume were analyzed.
Due to the importance of mitochondria and reactive oxygen species (ROS) levels in the fate of cardiomyocyte cells, the hypothesis that the compounds could impact the mitochondrial network was explored. Following treatment of the RNVCs with the compounds tested, the mitochondrial network was stained with 200 nM of Mitotracker and the cell volume with 4 μM of calcein-AM. Thus, the mitochondrial network and the individual mitochondria were then analyzed using the IMARIS software.

[2] = system: AMP-activated protein kinase (AMPK); experiment: Western blot of AMPK phosphorylation in RNVCs; format: cell-based, rat
Experimental: FIG. 8D: AMPK alpha2 and phospho-AMPK protein levels in RNVCs. Data are presented as mean±SEM with single-factor ANOVA, and multiple Sidak comparisons. *, p<0.05, **, p<0.01, ***, p<0.001 with respect to DMSO.
The H9C2 cells and RNVCs were detached in LB containing: 50 mM Tris, 150 mM NaCl, 1 mM EDTA, 0.5% deoxycholate, 1% Triton X 100, 0.1% SDS (pH 8.0). The cells were collected and placed on ice for 30 minutes. The cells were then centrifuged at 2000 g for 20 minutes at for 4° C. The supernatant was transferred to a new tube and stored on ice. The protein concentration was determined by BCA assay. The protein samples were diluted with sample buffer (2× Laemmli, Sigma), mixed, and heated for 5 minutes at 95° C. The samples were then loaded into a precast gel with a gradient of 4 to 20% and migrated for 15 minutes at 300 V. After migration, the membrane and the gel were placed on the base of a Trans Blot Turbo cassette (Bio Rad) and the proteins were transferred for 3 minutes at 2.5 V. After transfer, the membrane was blocked with 5% milk in PBS-Tween and incubated with a primary antibody diluted in PBS-Tween containing 5% w/v milk at 4° C. with gentle stirring, overnight. […] The images were recorded with a gel imaging system (Bio Rad). […]
Next, the energy metabolism was analyzed in real time using the Seahorse technology in H9C2 cells.

[3] = system: A549 lung cancer cell line; experiment: Influence of hits on growth of A549 cancer cells (total LDH after lysis); format: cell-based; settings: 48 h
Experimental: The cells were cultured for 6 h in the presence or absence of the hits, and then for 42 h. Finally, the cells were lysed with lysis buffer and the amount of LDH was measured to evaluate the total cell growth.
(§1) A colorimetric assay was used to measure lactate dehydrogenase (LDH), a cytosolic enzyme which is released during permeabilization of the plasma membrane (Promega G1780). The assay was performed using cell culture supernatants obtained from H9C2 or RNVC (rat neonatal ventricular myocyte) cells and lysis buffer (LB) was used as a positive control for total cell lysis. The LDH release was measured by absorbance reading at 490 nm (Infinite spectrofluorimeter, Tecan).
(§2) The effect of the compounds was then evaluated on primary rat neonatal ventricular cardiomyocytes (RNVCs) using the LDH test and propidium iodide staining. […] The absence of proliferative effects of the compounds was also evaluated on the A549 lung cancer cell line for 48 h (FIG. 2C).

RNVCs [4] = experiment: Mitochondrial ROS production with MitoSOX fluorescent probe; format: cell-based, rat; settings: 1 μM, 6 h
Experimental: FIG. 12: The RNVCs were treated with 0.1% DMSO, 3 μM rapamycin, 1 μM digitoxigenin, 1 μM digoxin, 1 μM minaprin, 1 μM VP331, 1 μM LOPA87, 10 μM SG6163F for 6 h, then the ROS production was stained with the MitoSOX fluorescent probe.
The RNVCs were treated with 0.01% DMSO, 3 μM rapamycin, […], 1 μM digoxin, 1 μM minaprine, 1 μM VP331, 1 μM LOPA87, 10 μM SG6163F in a serum-free cell culture medium for 6 hours. The contents (50 μg) of a MitoSOX™ mitochondrial superoxide indicator vial (ThermoFisher, M36008) were dissolved in 13 μl dimethyl sulfoxide (DMSO) to prepare a 5 mM MitoSOX™ reagent stock solution. Next, the 5 mM MitoSOX™ reagent stock solution in PBS was diluted to prepare a 5 μM working solution of MitoSOX™ reagent. After treatment, the cells were rinsed twice with hot PBS and then incubated with a MitoSOX reagent working solution for 10 minutes at 37° C. The cells were gently rinsed three times with hot PBS. Red fluorescence was detected with a Leica confocal microscope. Nuclear fluorescence was suppressed and mitochondrial fluorescence intensity was measured using ImageJ software.
ROSs are produced or accumulated as a by-product of mitochondrial activity metabolism. Thus, the ROSs may be a consequence of mitochondrial function or may reflect a defect in the mitochondrial antioxidant system.

hERG potassium channel = target: T1, hERG potassium channel (Homo sapiens, UniProt Q12809); experiment: hERG channel binding assay ([3H]dofetilide displacement); settings: for inhibition at 10 µM: human, probe [3H]dofetilide
T1 construct: Eurofins
Experimental: The evaluation of the binding of the compounds to the human hERG potassium channel was carried out as described previously (Eurofins).
Since the blocking of the human potassium channel hERG channel may be responsible for cardiac fibrillation leading to cardiac arrest and death of the patient, the binding of the 3 molecules SG6163F, VP331 and LOPA87 to this receptor was evaluated.

[5] = system: primary rat neonatal ventricular cardiomyocytes (RNVCs); experiment: Protection of RNVCs against camptothecin-induced apoptosis (LDH release, propidium iodide); format: cell-based; settings: camptothecin 10 μM
Experimental: Neonatal rat cardiomyocytes were isolated as described previously (Wang et al., Cell Death Dis, 2016, 7:e2198).
as §1
Propidium iodide, a non-permeable fluorescent DNA marker, was used to measure membrane integrity. Propidium iodide at 10 μM was added to the culture medium and a fluorescence reading was performed (for […]: 530 nm; em: 620 nm), the LB was used as a positive control for total cell lysis.
as §2

T1 sequence (Q12809 whole entry): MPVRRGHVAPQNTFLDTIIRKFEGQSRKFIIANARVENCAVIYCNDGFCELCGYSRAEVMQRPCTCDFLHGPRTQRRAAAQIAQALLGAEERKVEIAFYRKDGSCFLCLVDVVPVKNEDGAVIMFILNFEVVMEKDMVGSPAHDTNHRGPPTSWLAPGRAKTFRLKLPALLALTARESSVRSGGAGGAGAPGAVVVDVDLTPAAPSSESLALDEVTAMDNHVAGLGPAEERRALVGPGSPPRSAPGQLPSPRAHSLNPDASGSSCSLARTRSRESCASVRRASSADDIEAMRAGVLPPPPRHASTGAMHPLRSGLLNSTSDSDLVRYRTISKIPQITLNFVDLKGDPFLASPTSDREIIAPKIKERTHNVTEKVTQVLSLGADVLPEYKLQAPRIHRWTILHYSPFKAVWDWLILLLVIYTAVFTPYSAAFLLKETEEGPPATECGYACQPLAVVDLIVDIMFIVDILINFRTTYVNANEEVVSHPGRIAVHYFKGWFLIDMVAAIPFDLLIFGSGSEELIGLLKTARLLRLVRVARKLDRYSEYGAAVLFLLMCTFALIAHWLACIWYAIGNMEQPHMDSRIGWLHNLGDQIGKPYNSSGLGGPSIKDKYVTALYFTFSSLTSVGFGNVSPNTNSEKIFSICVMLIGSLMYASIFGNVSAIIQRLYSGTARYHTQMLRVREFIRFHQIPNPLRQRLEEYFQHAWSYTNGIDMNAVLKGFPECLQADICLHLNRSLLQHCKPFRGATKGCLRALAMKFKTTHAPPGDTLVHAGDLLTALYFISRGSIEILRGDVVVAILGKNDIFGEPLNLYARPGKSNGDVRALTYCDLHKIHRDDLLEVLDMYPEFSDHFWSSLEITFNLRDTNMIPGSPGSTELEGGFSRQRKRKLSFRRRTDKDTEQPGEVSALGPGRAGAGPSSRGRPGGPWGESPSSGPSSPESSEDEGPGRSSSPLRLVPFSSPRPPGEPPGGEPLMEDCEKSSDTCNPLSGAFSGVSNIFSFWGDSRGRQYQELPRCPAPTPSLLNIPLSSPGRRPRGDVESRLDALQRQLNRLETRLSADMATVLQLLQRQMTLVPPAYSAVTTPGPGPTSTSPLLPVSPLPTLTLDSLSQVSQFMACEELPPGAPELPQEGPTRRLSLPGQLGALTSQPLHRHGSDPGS

CN(C)c1ccc(-c2cc(=O)[nH]c(-c3ccccc3)n2)cc1 [LOPA87]
effect on the mitochondrial network (RNVCs [1]): no effect
number of mitochondria (RNVCs [1]): no effect
AMPK phosphorylation compared with the DMSO control [2]: 1.5 fold
effect on A549 cell growth [3]: no proliferative effect
local level of mitochondrial superoxide anion (RNVCs [4]): induced an elevation
inhibition at 10 µM (hERG potassium channel; inhibition of tritiated dofetilide binding, only values >50% considered effective, read-out: % inhibit 1st assay): 14.6%
inhibition at 10 µM (hERG potassium channel; inhibition of tritiated dofetilide binding, only values >50% considered effective, read-out: % inhibit 2nd assay): 5.3%
inhibition at 10 µM (hERG potassium channel; mean of two independent measurements, read-out: % inhibit Mean): 10%
binding to the hERG channel (hERG potassium channel; inhibition of specific binding of [3H]dofetilide in vitro): negligible
inhibition of apoptosis of RNVCs [5]: did not protect
